From patent EP0411495A2, “Ergoline derivatives of proline and related compounds having dopaminergic activity” (priority 1989, dated 1991)
Read-outs that look alike come from different tables or passages of the source.

Columns and labels:
isolated rat uterus = system: isolated rat uterus
Excerpt: All the compounds of the invention have a marked antiserotonin activity in the in vitro test on isolated rat uterus.

guinea pig platelet = assay: In vitro guinea pig platelet aggregation induced by ADP; format: cell-based; settings: guinea pig platelets
Excerpt: Moreover, compounds (I) have an effective antiag gregating activity on the in vitro guinea pig platelet aggregation induced by ADP.

rat seminal vesicle = assay: Adrenolytic activity, in vitro rat seminal vesicle test
Excerpt: Most of the compounds of formula (I) have a marked adrenolytic activity in the in vitro rat seminal vesicle test.

mouse [1] = assay: Locomotor activity in the mouse; format: in vivo
rat = assay: Stereotypy test in the rat; format: in vivo; settings: for Mean score: stereotypy, rat; for activity on C.N.S.: result in words
reserpinized rat = assay: Antihyperprolactinemic activity in the reserpinized rat; format: in vivo; settings: for Plasmatic prolactin % reduction: reserpinized rat; for antihyperprolactinemic activity: result in words
Excerpt: All compounds (I) have a marked antihyperprolactinemic activity in the reserpinized rat.

[2] = system: spontaneously hypertensive rats (SHR); assay: Antihypertensive activity on spontaneously hypertensive rats (SHR); format: in vivo, rat; settings: for Mean arterial pressure % reduction: SHR; for hypotensive activity: result in words
mouse [3] = assay: Acute toxicity by the oral route in the mouse; format: in vivo
[4] = antiserotonin activity, in vitro isolated rat uterus
[5] = After 1 hour (dose 0.25 mg/kg os)
[6] = After 2 hours (dose 0.50 mg/kg os)

Compound | ED₅₀ (isolated rat uterus; [4]) [µg/mL] | antiserotonin activity (isolated rat uterus; result in words) | ED₅₀ (rat seminal vesicle) [µg/mL] | Plasmatic prolactin % reduction (reserpinized rat; [5]) [%] | Mean arterial pressure % reduction ([2]; dose = 1 mg/kg i.p.) [%] | Mean arterial pressure % reduction ([2]; dose = 3 mg/kg i.p.) [%] | other results
CN1C[C@H](CN2CCC[C@H]2CO)C=C2c3cccc4[nH]cc(c34)C[C@H]21.Cl.Cl [P 1421] | 0.011 | remarkable antiserotonin activity | 2.82 | – | – | – | Platelet aggregation % reduction (guinea pig platelet; Dose 40 mcg/ml): 25%
CC(C)[C@@]1(NC(=O)[C@@H]2C[C@@H]3c4cccc5[nH]cc(c45)C[C@H]3N(C)C2)O[C@@]2(O)[C@@H]3CCCN3C(=O)[C@H](Cc3ccccc3)N2C1=O [Dihydroergocristine, reference compound] | 0.007 | – | – | 47.4 | 18.1 | 32.0 | % inhibition (mouse [1]; dose 10 mg/kg i.p.): 47.7%; Platelet aggregation % reduction (guinea pig platelet; Dose 40 mcg/ml): 25%; Mean score (rat; dose 10 mg/kg i.p.): 2.37
COC(=O)[C@@H]1C[C@@H](O)CN1C(=O)[C@@H]1C=C2c3cccc4[nH]cc(c34)C[C@H]2N(C)C1.O=C(O)/C=C\C(=O)O [P 1413, N-(D-Lysergyl)-4-hydroxy-L-proline methyl ester maleate] | – | – | – | – | – | – | ED₅₀ (isolated rat uterus): 0.004 µg/mL; antiserotonin activity (isolated rat uterus): remarkable antiserotonin activity
CN1C[C@H](C(=O)N2CCC[C@H]2C#N)C=C2c3cccc4c3c(cn4C)C[C@H]21.Cl [P 1420] | 0.003 | remarkable antiserotonin activity | 0.50 | 50.1 | – | – | % inhibition (mouse [1]; dose 5 mg/kg i.p.): 82.7%; acute toxicity (mouse [3]): slightly more toxic; activity on C.N.S. (rat): marked activity on C.N.S.; Mean score (rat; dose 2.5 mg/kg i.p.): 2.17; antihyperprolactinemic activity (reserpinized rat): interesting antihyperprolactinemic activity
CN1C[C@H](C(=O)N2CCC[C@H]2C#N)C=C2c3cccc4[nH]cc(c34)C[C@H]21.Cl [P 1419] | 0.073 | – | 0.22 | 68.4 | – | – | % inhibition (mouse [1]; dose 0.625 mg/kg i.p.): 63.2%; acute toxicity (mouse [3]): slightly more toxic; activity on C.N.S. (rat): marked activity on C.N.S.; Mean score (rat; dose 0.625 mg/kg i.p.): 2.50; Plasmatic prolactin % reduction (reserpinized rat; [6]): 84.1%; antihyperprolactinemic activity (reserpinized rat): interesting antihyperprolactinemic activity
COC(=O)[C@@H]1CCCN1C(=O)[C@@H]1C=C2c3cccc4[nH]cc(c34)C[C@H]2N(C)C1.O=C(O)/C=C\C(=O)O [P 1409, N-(D-Lysergyl)-L-proline methyl ester maleate] | – | – | 1.02 | – | 22.1 | 27.5 | ED₅₀ (isolated rat uterus): 0.010 µg/mL; antiserotonin activity (isolated rat uterus): remarkable antiserotonin activity; % inhibition (mouse [1]; dose 2.5 mg/kg i.p.): 69.5%; activity on C.N.S. (rat): marked activity on C.N.S.; Mean score (rat; dose 1.25 mg/kg i.p.): 1.00; hypotensive activity [2]: high hypotensive activity
CN1C[C@H](C(=O)N2CCC[C@H]2CO)C=C2c3cccc4[nH]cc(c34)C[C@H]21.O=C(O)/C=C\C(=O)O [P 1410] | 0.059 | remarkable antiserotonin activity | – | 65.7 | 17.8 | – | activity on C.N.S. (rat): marked activity on C.N.S.; Mean score (rat; dose 10 mg/kg i.p.): 2.62; antihyperprolactinemic activity (reserpinized rat): interesting antihyperprolactinemic activity; hypotensive activity [2]: high hypotensive activity
CC[C@@H](CO)NC(=O)[C@@H]1C=C2c3cccc4c3c(cn4C)C[C@H]2N(C)C1 [Methysergid, reference compound] | – | – | 2.48 | – | – | – | –
CN1C[C@H](C(=O)N2CC(O)C[C@H]2CO)C=C2c3cccc4c3c(cn4C)C[C@H]21.Cl (stereo partly shown) [P 1417] | 0.001 | remarkable antiserotonin activity | 3.52 | – | – | – | –
CC[C@@H](CO)NC(=O)[C@@H]1C=C2c3cccc4[nH]cc(c34)C[C@H]2N(C)C1 [Methylergometrine, reference compound] | – | – | – | – | 15.7 | 29.4 | –
CN1C[C@H](C(=O)N2CC(O)C[C@H]2CO)C=C2c3cccc4[nH]c(Br)c(c34)C[C@H]21 (stereo partly shown) [P 1415] | 0.015 | remarkable antiserotonin activity | 0.95 | – | – | – | –
CN1CC(C(=O)N2CC(O)CC2CO)CC2c3cccc4[nH]cc(c34)CC21 (stereo not shown) [P 1422] | 0.014 | remarkable antiserotonin activity | 2.89 | 77.1 | 18.8 | 40.8 | % inhibition (mouse [1]; dose 20 mg/kg i.p.): 79.8%; antihyperprolactinemic activity (reserpinized rat): interesting antihyperprolactinemic activity; hypotensive activity [2]: high hypotensive activity
CN1C[C@H](C(=O)N2C[C@H](O)C[C@H]2CO)C=C2c3cccc4[nH]cc(c34)C[C@H]21 [P 1414, N-(D-Lysergyl)-4-hydroxy-L-prolinol] | 0.007 | – | – | – | 17.9 | 31.2 | hypotensive activity [2]: high hypotensive activity
CN1C[C@H](C(=O)N2CCC[C@H]2C(=O)O)C=C2c3cccc4[nH]cc(c34)C[C@H]21 [P 1411] | 0.370 | – | – | – | – | – | % inhibition (mouse [1]; dose 20 mg/kg i.p.): 80.9%
CC(C)C[C@H]1C(=O)N2CCC[C@H]2[C@]2(O)O[C@](NC(=O)[C@@H]3C[C@@H]4c5cccc6[nH]cc(c56)C[C@H]4N(C)C3)(C(C)C)C(=O)N12 [Dihydro-α-ergocryptine, reference compound] | 0.035 | – | – | 52.4 | 18.3 | 29.0 | % inhibition (mouse [1]; dose 20 mg/kg i.p.): 74.3%; Platelet aggregation % reduction (guinea pig platelet; Dose 20 mcg/ml): 25%; Plasmatic prolactin % reduction (reserpinized rat; [6]): 66.1%
CC(C)C[C@H]1C(=O)N2CCC[C@H]2[C@]2(O)O[C@](NC(=O)[C@@H]3C=C4c5cccc6[nH]c(Br)c(c56)C[C@H]4N(C)C3)(C(C)C)C(=O)N12 [α-Bromocryptine, reference compound] | 0.470 | – | – | 78.2 | – | – | % inhibition (mouse [1]; dose 10 mg/kg i.p.): 78.7%; Platelet aggregation % reduction (guinea pig platelet; Dose 80 mcg/ml): 25%; Mean score (rat; dose 10 mg/kg i.p.): 2.25; Plasmatic prolactin % reduction (reserpinized rat; [6]): 80.9%
